{"source": "patent US9289409B2", "about": "“Sulindac formulations in a biodegradable material” (Warsaw Orthopedic, Inc., priority 2008, dated 2016)", "key": {"[1]": {"tested_on": "Rat Chronic Constriction Injury Model", "assay": "Hargreaves test, thermal hyperalgesia, rat chronic constriction injury (Bennett) model", "type": "in vivo, Wistar rat", "conditions": "sulindac intraperitoneally 0.4 mg/kg/day; days 7-56; FIG. 3", "source_text": "(§1) The inventors evaluated the efficacy of a 5 Month Sulindac/Polymer Drug Depot in the Rat Chronic Constriction Injury Model. The animal model was the Bennett Model (Wistar rat). The purpose: To determine whether a 5 month polymer sulindac-eluting depot can improve pain associated behavioral responses in a rat model of neuropathic pain.\n(§2) Experimental Design: Four loose chromic gut ligatures, 1 mm apart, were tied around the common sciatic nerve at mid-thigh. Each animal received treatment of test or control article-according to the dosing described in Table 4.\n(§3) To date, the inventors have conducted the present study for a period of 57 days and have employed the following two tests: (1) the Hargreaves test on days 7, 14, 21, 28, 35, 42, 49, and 56; and (2) the von Frey test on days 8, 15, 22, 29, 36, 43, 50, and 57. The results of theses tests are summarized in FIGS. 3-6 and show the efficacy of sulindac of the recited time periods."}, "[2]": {"tested_on": "Rat Chronic Constriction Injury Model", "assay": "von Frey test, mechanical allodynia, rat chronic constriction injury (Bennett) model", "type": "in vivo, Wistar rat", "conditions": "sulindac intraperitoneally 0.4 mg/kg/day; days 8-57; FIG. 4", "source_text": "as §1, §2, §3"}}}
{"compound": "CC1=C(CC(=O)O)c2cc(F)ccc2/C1=C\\c1ccc([S+](C)[O-])cc1", "note": "(centres unmarked) [sulindac]", "values": [{"measurement": "pain behavioral response (percentage of baseline), thermal hyperalgesia, compared to unloaded polymer depot", "setting": "[1]", "value": "consistently reduced the behavioral response"}, {"measurement": "pain behavioral response (percentage of baseline), mechanical allodynia, compared to unloaded polymer depots", "setting": "[2]", "value": "reduced the behavioral response"}]}
